Legend:
Escherichia coli [1] = experiment: Antimicrobial activity against Escherichia coli UB 1005 assessed as reduction in microbial growth by CLSI based broth microdilution method; type: functional
Staphylococcus aureus [2] = experiment: Antimicrobial activity against Staphylococcus aureus ATCC 29213 assessed as reduction in microbial growth by CLSI based broth microdilution method; type: functional
Pseudomonas aeruginosa = experiment: Antimicrobial activity against Pseudomonas aeruginosa ATCC 27853 assessed as reduction in microbial growth by CLSI based broth microdilution method; type: functional
Enterococcus faecalis = experiment: Antimicrobial activity against Enterococcus faecalis ATCC 29212 assessed as reduction in microbial growth by CLSI based broth microdilution method; type: functional
Salmonella typhimurium [3] = experiment: Antimicrobial activity against Salmonella typhimurium ATCC 7731 assessed as reduction in microbial growth by CLSI based broth microdilution method; type: functional, Salmonella enterica subsp. enterica serovar Typhimurium; details: Salmonella enterica
Staphylococcus aureus [4] = experiment: Antimicrobial activity against Staphylococcus aureus 43300 assessed as reduction in microbial growth by CLSI based broth microdilution method; type: functional
Staphylococcus aureus [5] = experiment: Antimicrobial activity against Staphylococcus aureus ATCC 25923 assessed as reduction in microbial growth by CLSI based broth microdilution method; type: functional
[6] = Antimicrobial activity against Salmonella enterica subsp. enterica serovar Pullorum ATCC 7913 assessed as reduction in microbial growth by CLSI based broth microdilution method; type: functional
Escherichia coli [7] = experiment: Antimicrobial activity against Escherichia coli K88 assessed as reduction in microbial growth by CLSI based broth microdilution method; type: functional
Escherichia coli [8] = experiment: Antimicrobial activity against Escherichia coli ATCC 25922 assessed as reduction in microbial growth by CLSI based broth microdilution method; type: functional
Escherichia coli [9] = experiment: Antimicrobial activity against Escherichia coli 078 assessed as reduction in microbial growth by CLSI based broth microdilution method; type: functional
Escherichia coli [10] = experiment: Antimicrobial activity against Escherichia coli K99 assessed as reduction in microbial growth by CLSI based broth microdilution method; type: functional
[11] = tested on: Staphylococcus epidermidis; experiment: Antimicrobial activity against Staphylococcus epidermidis ATCC 12228 assessed as reduction in microbial growth by CLSI based broth microdilution method; type: functional
Salmonella typhimurium [12] = experiment: Antimicrobial activity against Salmonella typhimurium ATCC 14028 assessed as reduction in microbial growth by CLSI based broth microdilution method; type: functional, Salmonella enterica subsp. enterica serovar Typhimurium; details: Salmonella enterica

Measured: MIC

CC(C)=CCCC(C)CC=O (stereo unspecified)
1020 µg/mL: Enterococcus faecalis
32800 µg/mL: Salmonella typhimurium [3] | [6] | Escherichia coli [7] | Escherichia coli [9] | Escherichia coli [10] | Salmonella typhimurium [12]
4100 µg/mL: Staphylococcus aureus [2] | Staphylococcus aureus [4]
16400 µg/mL: Escherichia coli [1] | Pseudomonas aeruginosa | Staphylococcus aureus [5] | Escherichia coli [8] | [11]

Cc1ccc(C(C)C)c(O)c1 [THYMOL]
128 µg/mL: Salmonella typhimurium [3] | Escherichia coli [7] | [11]
256 µg/mL: Escherichia coli [1] | Staphylococcus aureus [2] | Pseudomonas aeruginosa | Enterococcus faecalis | Staphylococcus aureus [4] | Staphylococcus aureus [5] | [6] | Escherichia coli [8] | Escherichia coli [10] | Salmonella typhimurium [12]
64 µg/mL: Escherichia coli [9]

CC(C)c1ccc(C=O)cc1 [CUMINALDEHYDE]
16400 µg/mL: Escherichia coli [1] | Escherichia coli [7] | Escherichia coli [9]
4100 µg/mL: Staphylococcus aureus [2]
2050 µg/mL: Enterococcus faecalis | Staphylococcus aureus [4]
8190 µg/mL: Pseudomonas aeruginosa | Salmonella typhimurium [3] | Staphylococcus aureus [5] | [6] | Escherichia coli [8] | Escherichia coli [10] | [11] | Salmonella typhimurium [12]

Cc1ccc(C(C)C)cc1O [CARVACROL]
256 µg/mL: Escherichia coli [1] | Enterococcus faecalis | Staphylococcus aureus [4] | Escherichia coli [7] | Escherichia coli [8]
128 µg/mL: Staphylococcus aureus [2] | Pseudomonas aeruginosa | Salmonella typhimurium [3] | Staphylococcus aureus [5] | [6] | Escherichia coli [9] | Escherichia coli [10] | [11] | Salmonella typhimurium [12]
